Test results from patent US20230017532A1 (Hoffmann-La Roche Inc., priority 2018, published 2023).
Counter-ions that a name gives are not always drawn.

System: Acinetobacter baumannii ATCC17978
Assay: Antimicrobial susceptibility testing: 90% growth inhibitory concentration (IC90) determination, Iso-Sensitest broth, OD 600 nm
Format: cell-based
Conditions: Acinetobacter baumannii, ATCC17978, 16 h, 90% growth inhibitory concentration, Acinetobacter baumannii ATCC17978, Iso-Sensitest broth, OD 600 nm over 16 h; read-out: ATCC 17978 IC90
Summary of the method: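 Twofold serial dilutions (e.g. 50–0.097 μM final) incubated with ~5×10^5 CFU/ml in Iso-Sensitest broth at 35±2 °C. OD600 read every 20 min for 16 h; IC90 derived from growth inhibition during logarithmic phase.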

Row | SMILES | IC90 [nM]
1 | CCNCCCN(CC)C(=O)c1ccc(Nc2nccn3c(-c4ccc(OC)c(F)c4)cnc23)cc1C [Example 128, N-ethyl-N-[3-(ethylamino)propyl]-4-[[3-(3-fluoro-4-methoxyphenyl)imidazo[1,2-a]pyrazin-8-yl]amino]-2-methyl-benzamide] | 3400
2 | COc1ccc(-c2cnc3c(Nc4ccc(C(=O)N(C)CCOCCN5CCN(C6CC6)CC5)c(C)c4)nccn23)cc1F [Example 130, N-[2-[2-(4-cyclopropyl-piperazin-1-yl)ethoxy]ethyl]-4-[[3-(3-fluoro-4-methoxyphenyl)imidazo[1,2-a]pyrazin-8-yl]amino]-N,2-dimethyl-benzamide] | 760
3 | COc1ccc(-c2cnc3c(Nc4ccc(C(=O)N(C)CCOCCN5CCNCC5)c(C)c4)nccn23)cc1F [Example 131, 4-[[3-(3-fluoro-4-methoxyphenyl)imidazo[1,2-a]pyrazin-8-yl]amino]-N,2-dimethyl-N-[2-(2-piperazin-1-ylethoxy)ethyl]benzamide] | 770
4 | COc1ccc(-c2cnc3c(Nc4ccc(C(=O)N(C)CCOCCN5CCNCC5)c(C)c4)nccn23)cc1 [Example 133, formic acid; 4-[[3-(4-methoxyphenyl)imidazo[1,2-a]pyrazin-8-yl]amino]-N,2-dimethyl-N-[2-(2-piperazin-1-ylethoxy)ethyl] benzamide] | 790
5 | COc1ccc(-c2cnc3c(Nc4ccc(C(=O)NCCOCC(=O)N5CCOC(CN)C5)c(C)c4)nccn23)cc1F (stereo not drawn) [Example 135, N-[2-[2-[2-(aminomethyl)morpholin-4-yl]-2-oxoethoxy]ethyl]-4-[[3-(3-fluoro-4-methoxyphenyl)imidazo[1,2-a]pyrazin-8-yl]amino]-2-methylbenzamide; hydrochloride] | 820
6 | COc1ccc(-c2cnc3c(Nc4ccc(C(=O)N(C)CCOCCN5CCOC(CN)C5)c(C)c4)nccn23)cc1F (stereo not drawn) [Example 137, N-[2-[2-[2-(aminomethyl)morpholin-4-yl]ethoxy]ethyl]-4-[[3-(3-fluoro-4-methoxyphenyl)imidazo[1,2-a]pyrazin-8-yl]amino]-N,2-dimethyl-benzamide; hydrochloride] | 940

Now from value to molecule:

Row | IC90 [nM] | SMILES
7 | 670 | Cc1cc(Nc2nccn3c(-c4ccc(OC(F)F)cc4)cnc23)ccc1C(=O)NCCOCCNC(=O)CN(C)C [Example 127, 4-[[3-[4-(difluoromethoxy)phenyl]imidazo [1,2-a]pyrazin-8-yl]amino]-N-[2-[2-[[2-(dimethyl-amino)acetyl]amino]ethoxy]ethyl]-2-methylbenzamide]
8 | 720 | Cc1cc(Nc2nccn3c(-c4ccc(OC(F)F)cc4)cnc23)ccc1C(=O)NCCOCCO [Example 129, 4-[[3-[4-(difluoromethoxy)phenyl]imidazo [1,2-a]pyrazin-8-yl]amino]-N-[2-(2-hydroxyethoxy)ethyl]-2-methylbenzamide]
9 | 780 | Cc1cc(Nc2nccn3c(-c4ccc(OC(F)F)cc4)cnc23)ccc1C(=O)NCCOCCS(C)(=O)=O [Example 132, 4-[[3-[4-(difluoro-methoxy)phenyl]imidazo [1,2-a]pyrazin-8-yl]amino]-2-methyl-N-[2-(2-methylsulfonyl-ethoxy)ethyl] benzamide]
10 | 800 | Cc1cc(Nc2nccn3c(-c4ccc(OC(F)F)cc4)cnc23)ccc1C(=O)NCCOCCN1CCNCC1 [Example 134, 4-[[3-[4-(difluoromethoxy)phenyl]imidazo [1,2-a]pyrazin-8-yl]amino]-2-methyl-N-[2-(2-piperazin-1-ylethoxy)ethyl] benzamide; hydrochloride]
11 | 860 | Cc1cc(Nc2nccn3c(-c4ccc(OC(F)F)cc4)cnc23)ccc1C(=O)N(C)CCOCCN [Example 136, N-[2-(2-aminoethoxy)ethyl]-4-[[3-[4-(difluoro-methoxy)phenyl]imidazo [1,2-a]pyrazin-8-yl]amino]-N,2-dimethyl-benzamide; hydrochloride]
12 | 960 | Cc1cc(Nc2nccn3c(-c4ccc(Cl)cc4)cnc23)ccc1C(=O)N(C)CCOCCN [Example 138, N-[2-(2-aminoethoxy)ethyl]-4-[[3-(4-chlorophenyl)imidazo[1,2-a]pyrazin-8-yl]amino]-N,2-dimethyl-benzamide; hydrochloride]
